Consider one molecule from ChEMBL document CHEMBL1155555, “Matemone, a new bioactive bromine-containing oxindole alkaloid from the indian ocean sponge Iotrochota purpurea” (J Nat Prod, 2000).

Molecules are shown by their SMILES. Values after ≈ are worked out from the molar mass of the structure shown. Active and inactive are the calls of the source. The rule behind the calls is not given here.

The test system of experiment [1] is Staphylococcus aureus. In words: Antibacterial activity against Staphylococcus aureus at 50 ug/disk after 18 hrs by paper disk agar diffusion assay. The experiment is classed as functional. The following applies: read-out: IZ. (In agar diffusion tests the substance spreads into inoculated agar from a disc or well.)
In a further experiment the test system is DNA. The experiment in a line: Binding affinity to calf thymus DNA by DNA intercalating assay relative to ethidium bromide. The experiment is classed as nucleic-acid assay. The conditions noted are these: Bos taurus.
The next experiment concerns MIA PaCa-2. In words: Cytotoxicity against human PaCa2. The experiment is classed as functional, cell-based.
Experiment [2] is described as follows: Cytotoxicity against human NSCLC-N6 L16. The experiment is classed as functional.
For the next experiment, the system named is Candida albicans. The experiment in a line: Antifungal activity against Candida albicans at 200 ug/disk after 18 hrs by paper disk agar diffusion assay. The experiment is classed as functional, organism-based.
Experiment [3] has as its system Staphylococcus aureus. In words: Antibacterial activity against Staphylococcus aureus at 100 ug/disk after 18 hrs by paper disk agar diffusion assay. The following applies: read-out: IZ. The experiment is classed as functional.
The subject of experiment [4] is Staphylococcus aureus. In words: Antibacterial activity against Staphylococcus aureus at 200 ug/disk after 18 hrs by paper disk agar diffusion assay. The experiment is classed as functional. The conditions noted are these: read-out: IZ.
A further experiment has as its system Paracentrotus lividus. In words: Inhibition of sea urchin egg division.
The test system of the next experiment is DU-145. The experiment in a line: Cytotoxicity against human DU145. The experiment is classed as functional, cell-based.

The term IC50 denotes the midpoint of a concentration-inhibition curve. High values mean weaker potency, low ones greater potency. Take `COC1(CO)Nc2cc(Br)ccc2C1=O` (centres undefined) [MATEMONE]: the zone of inhibition at 50 µg/disc with Staphylococcus aureus [1] was determined as 7 mm. In addition, the Activity in the experiment on DNA stood at 40%. For the same molecule, the IC50 in the experiment with MIA PaCa-2 is 24 µg/mL (≈ 88.2 µM); in [2], 30 µg/mL (≈ 110 µM); with Paracentrotus lividus, 35 µg/mL (≈ 129 µM); in the experiment with DU-145, 27 µg/mL (≈ 99.2 µM). Further, the outcome with Candida albicans was inactive. In addition, in the experiment with Staphylococcus aureus [3], the zone of inhibition at 100 µg/disc was 9 mm. In the experiment on Staphylococcus aureus [4], the zone of inhibition at 200 µg/disc stood at 11 mm.
